# Laboratory results reported in US10426772B2, “Use of ergot alkaloids as an anthelmintic agent” (priority 2016, dated 2019).
# Key:
# adult schistosomes = test: Egg laying assay, adult schistosome pairs in vitro; type: cell-based, Schistosoma mansoni
# Text: (§1) Female Swiss Webster mice infected with S. mansoni cerceria (NMRI strain) were sacrificed 49 days post infection by CO2 euthanasia. Adult schistosomes were recovered by perfusion with a solution of 0.85% sodium chloride+0.75% sodium citrate and dissection of the mesenteric vasculature. Harvested schistosomes were washed in RPMI 1640 Medium with GlutaMAX+5% heat inactivated FBS (Gibco) and Penicillin-Streptomycin (final concentration 100 units/mL, ThermoFisher cat #15140122).
# For egg laying assays, adult schistosomes were transferred to 24 well plates the day after harvesting from mice (5 worm pairs in 2 mL media per well). Eggs were counted under a stereomicroscope daily, after which worms were transferred to a new well with fresh drug containing media. Egg counts were recorded for five days, and data processed as the mean number of eggs laid per worm pair/day. Measurements of egg dimensions were quantified using the “analyze>measure” function in ImageJ to record the length and width of individual eggs.
# S. mansoni = test: Curative efficacy against schistosome infection in mice; type: in vivo, Schistosoma mansoni
# Description: Assays testing the curative efficacy of compounds against schistosome infection were performed on mice 6 weeks after exposure to cerceria. Drugs were dosed as follows. Ergotamine (95 mg/kg) was solubilized in 50 μL DMSO and diluted in 200 μL trappsol-saline and delivered by intraperitoneal injection twice a day for one week. Praziquantel (50 mg/kg) was similarly solubilized and injected intraperitoneally once a day for one week. The negative control cohort was given twice daily injections of DMSO (50 μL) added to 200 μL trappsol-saline solution. Mice were weighed and euthanized at 49 days post infection. Worms were harvested and counted as in the hepatic shift assay. Spleen and livers were weighed, and a segment of intestine was excised from the most distal region of the rectum to 10 cm above the cecum. The small and large intestines were separated by cutting immediately above and below the cecum. Each was cut lengthwise to expose the lumen and thoroughly washed in NaCl (1.2%) to remove excrement. Intestines were laid flat with the intestinal mucosa facing upwards and clamped between two glass plates to allow visual inspection of eggs using a stereo microscope.
# Mice were injected with vehicle control (dmso), the current frontline anthelmintic (praziquantel) or ergotamine twice daily for one week at starting 42 days post infection.
# All animals were sacrificed 49 days post infection, and worms were harvested by dissection of the mesenteric vasculature, portal vein and liver. […] Schistosomes lay large numbers of eggs within the host mesenteric system, and these progress through stages of development over approximately 5 days which can be scored looking at samples of the intestinal mucosa (Pellegrino et al., 1965). Therefore, it is possible to visually determine whether drug treatment has arrested parasite egg laying by observing a lack of developing eggs. Sections of both the large and small intestines were examined and eggs were manually counted and scored according to developmental stage (representative stages of embryo development shown in FIG. 20H-I, top).
# Sm.5HTR = Sm.5HTR (Schistosoma mansoni, UniProt G4V5G4); type: cell-based; conditions: FIG. 10A
# Chain of Sm.5HTR (G4V5G4 entry or part of it): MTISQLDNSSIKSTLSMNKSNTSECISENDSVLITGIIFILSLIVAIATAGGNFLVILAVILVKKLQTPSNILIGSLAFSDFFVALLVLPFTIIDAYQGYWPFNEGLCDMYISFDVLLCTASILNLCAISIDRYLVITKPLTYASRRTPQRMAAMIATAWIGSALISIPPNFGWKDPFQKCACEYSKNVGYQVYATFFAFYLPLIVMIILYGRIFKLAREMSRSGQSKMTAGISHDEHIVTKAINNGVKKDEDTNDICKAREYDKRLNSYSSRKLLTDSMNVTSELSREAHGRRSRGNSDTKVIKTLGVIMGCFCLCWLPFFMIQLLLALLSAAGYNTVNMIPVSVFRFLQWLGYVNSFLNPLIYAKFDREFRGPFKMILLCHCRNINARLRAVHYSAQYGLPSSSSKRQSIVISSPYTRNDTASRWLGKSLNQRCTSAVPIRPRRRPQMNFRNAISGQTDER
# adult S. mansoni = test: Movement assay of cultured adult S. mansoni (Example 2); type: cell-based; conditions: Schistosoma mansoni; FIG. 19B; read-out: EC50, stimulation of adult schistosome movement
# Text: as §1
# For movement assays, worms were cultured 37° C./5% CO2 in vented 100×25 mm petri dishes (ThermoFisher cat #4031) containing 50 mL of media and used between 1-3 days after harvesting. Prior to assessing worm movement, individuals were transferred to a six well dish (4-5 individuals per well) containing 3 mL drug solution in RPMI 1640 supplemented with HEPES (25 mM) and MS (5%). Videos were recorded using a Zeiss Discovery v20 stereomicroscope and a QiCAM 12-bit cooled color CCD camera controlled by metamorph imaging software (version 7.8.1.0). 1 minute recordings were acquired at 4 frames per second, saved as a .TIFF stack, and movement was analyzed using ImageJ software as described in (PMID: 27187180, PMID: 27397763).
# [1] = infected mice, ergotamine 95 mg/kg i.p. twice a day, one week
smiles,measurement,setting,value
CN1C[C@H](C(=O)N[C@]2(C)O[C@@]3(O)[C@@H]4CCCN4C(=O)[C@H](Cc4ccccc4)N3C2=O)C=C2c3cccc4[nH]cc(c34)C[C@H]21 [ergotamine],reduction in size of eggs,"adult schistosomes; FIGS. 19H&I, ergotamine 1 μM",43%
same,decrease of egg laying,"adult schistosomes; serotonin 100 μM, forskolin 100 μM, LSD 10 μM, nuciferine 10 μM, ergotamine 5 μM (FIG. 19F), eggs per worm pair/day over five days",54%
same,increase of liver relative to uninfected littermates,S. mansoni; [1],15±34%
same,increase of spleen relative to uninfected littermates,S. mansoni; [1],151±80%
same,reduction of worm burden relative to controls,"S. mansoni; mice, ergotamine 95 mg/kg i.p. twice a day for one week from 42 days post infection, sacrificed day 49",65±10%
same,decrease in intestinal egg counts,"S. mansoni; mice, ergotamine 95 mg/kg twice a day, praziquantel 50 mg/kg once a day, i.p., one week, versus vehicle control",96%
same,"agonist efficacy at Sm.5HTR, in words",Sm.5HTR,partial agonism
same,EC50,"Sm.5HTR; read-out: EC50, agonist activity at Sm.5HTR",0.232 µM
same,EC50,adult S. mansoni,0.01 ± 0.003 µM
